Experimental data published in ChEMBL document CHEMBL1201862, “PubChem BioAssay data set” (2004).
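Results reflect a 48-hour exposure of cells in 96-well plates to compound at five concentrations. The concentration for 50% growth inhibition is given as GI50.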 Active and inactive are the calls of the source. No stated cut-off is given here; in the data, active = GI50 up to about 1.1 µM and inactive = higher.

Tests used:
Test in all cases: inhibition of tumour cell growth, NCI panel, 48 h
T47D = tested on: T47D
HOP-18 = tested on: HOP-18
XF498 = tested on: XF498
KM-20L2 = tested on: KM-20L2
M19-MEL = tested on: M19-MEL
DMS-273 = tested on: DMS-273
DLD-1 = tested on: DLD-1
LXFL 529 = tested on: LXFL 529
RXF 631 = tested on: RXF 631

CCC1c2[nH]c3ccccc3c2C[C@H]2C(=O)NC(C)C(=O)N12 (some centres not stated)
GI50 (T47D): > 100 µM (inactive)

NC(=O)/N=C(\N)NC(=O)c1ccccc1
GI50 (T47D): > 100 µM (inactive)

Cc1cc2cc3c(O)nc(O)nc3nc2cc1C
GI50 (T47D): > 100 µM (inactive)

O=C1c2ccccc2C(=O)c2c1ccc(C(=O)O)c2-c1ccc2ccccc2c1
GI50 (T47D): 2.22 µM (inactive)

COc1cc2c(c(N)c1OC)C(=O)/C(=C/c1cc(C)c(O)c(C)c1)C2
GI50 (T47D): > 100 µM (inactive)

C=C1C(=O)C2=CC1CCC(=O)C1(C)CCC(OC(C)=O)C(C)(C)C1CC2O (configuration not stated)
GI50 (T47D): 3.74 µM (inactive)

N#CC1(Nc2ccc(-c3ccc(NC4(C#N)CCCC4)cc3)cc2)CCCC1
GI50 (T47D): > 100 µM (inactive)

Nc1n[nH]c(Nc2ccc(Cl)cc2)c1P(=O)(c1ccccc1)c1ccccc1
GI50 (T47D): 58.7 µM (inactive)

CCCCCOc1ccc(/C=N\c2ccc(CCc3ccc(/N=C/c4ccc(OCCCCC)cc4)cc3)cc2)cc1
GI50 (HOP-18): > 100 µM (inactive) | GI50 (XF498): > 100 µM (inactive) | GI50 (KM-20L2): > 100 µM (inactive) | GI50 (M19-MEL): > 100 µM (inactive) | GI50 (DMS-273): > 100 µM (inactive) | GI50 (DLD-1): > 100 µM (inactive)

N#Cc1c(N)c2c(c(-c3ccccc3)c1-c1ccccc1)C(=O)N(O)C2=O
GI50 (T47D): 22.8 µM (inactive)

O=c1c(O)c(-c2cc(O)c(O)cc2O)oc2cc(O)c(C3OC(CO)C(O)C(O)C3O)c(O)c12 (configuration not stated)
GI50 (T47D): > 100 µM (inactive)

CC1=NOC(=O)/C1=C/c1cccc2ccccc12
GI50 (HOP-18): > 100 µM (inactive) | GI50 (KM-20L2): > 100 µM (inactive) | GI50 (LXFL 529): > 100 µM (inactive) | GI50 (M19-MEL): > 100 µM (inactive) | GI50 (DMS-273): > 100 µM (inactive) | GI50 (DLD-1): > 100 µM (inactive)

Cc1ccccc1NC(=O)C(=O)CC(=O)C1CCOC1=O (configuration not stated)
GI50 (HOP-18): 7.29 µM (inactive) | GI50 (XF498): > 100 µM (inactive) | GI50 (KM-20L2): > 100 µM (inactive) | GI50 (LXFL 529): > 100 µM (inactive) | GI50 (M19-MEL): > 100 µM (inactive) | GI50 (DMS-273): > 100 µM (inactive) | GI50 (DLD-1): > 100 µM (inactive)

Cn1ccnc1C(c1nccn1C)C(C)(C)[N+](=O)[O-]
GI50 (RXF 631): > 100 µM (inactive) | GI50 (XF498): > 100 µM (inactive) | GI50 (M19-MEL): > 100 µM (inactive) | GI50 (DMS-273): > 100 µM (inactive) | GI50 (DLD-1): > 100 µM (inactive)

CCOC(=O)C(=O)CC(=O)C(Br)C(Br)c1ccc(Cl)cc1 (configuration not stated)
GI50 (RXF 631): > 100 µM (inactive) | GI50 (KM-20L2): > 100 µM (inactive) | GI50 (LXFL 529): 16.3 µM (inactive) | GI50 (M19-MEL): 23.2 µM (inactive) | GI50 (DMS-273): 70.5 µM (inactive) | GI50 (DLD-1): 18.3 µM (inactive)

O=C(CCN1CCCCC1)C(=Cc1ccccc1)C(=O)CCN1CCCCC1
GI50 (HOP-18): > 10 µM (inactive) | GI50 (XF498): > 100 µM (inactive) | GI50 (KM-20L2): > 100 µM (inactive) | GI50 (M19-MEL): 67.3 µM (inactive) | GI50 (DMS-273): > 100 µM (inactive) | GI50 (DLD-1): 20 µM (inactive)

C[s+]1c2ccccc2c2ccccc21
GI50 (XF498): > 100 µM (inactive) | GI50 (KM-20L2): > 100 µM (inactive) | GI50 (LXFL 529): > 100 µM (inactive) | GI50 (M19-MEL): > 100 µM (inactive) | GI50 (DMS-273): > 100 µM (inactive)

COc1ccc(/C=N/NC(=O)O)cc1
GI50 (T47D): > 100 µM (inactive)

CCOC(=O)C1(Cc2c[nH]c3ccccc23)C(O)CCCN1C(C)=O (configuration not stated)
GI50 (T47D): > 100 µM (inactive)

COc1ccc(/C=C(\NC(=O)c2ccccc2)c2nc3ccccc3[nH]2)cc1OC
GI50 (RXF 631): > 100 µM (inactive) | GI50 (HOP-18): > 100 µM (inactive) | GI50 (XF498): > 100 µM (inactive) | GI50 (KM-20L2): > 100 µM (inactive) | GI50 (LXFL 529): 76 µM (inactive) | GI50 (M19-MEL): > 100 µM (inactive) | GI50 (DLD-1): > 100 µM (inactive)

O=C(O)c1ccccc1/C=N\N=C1NCCCCN1
GI50 (T47D): > 100 µM (inactive)

COc1ccc2nc3c([N+](=O)[O-])ccc(NCCCN(C)C)c3c(N)c2c1
GI50 (T47D): 1.92 µM (inactive)

O=C1c2ccccc2C(=O)N1CC#CCO
GI50 (RXF 631): > 100 µM (inactive) | GI50 (XF498): > 100 µM (inactive) | GI50 (LXFL 529): > 100 µM (inactive) | GI50 (M19-MEL): > 100 µM (inactive) | GI50 (DMS-273): > 100 µM (inactive)

CCOC(=O)/C(=C\c1ccc(N(CCC#N)CCC#N)cc1C)NC(=O)/C=C/c1ccccc1
GI50 (XF498): > 100 µM (inactive) | GI50 (KM-20L2): > 100 µM (inactive) | GI50 (LXFL 529): > 100 µM (inactive) | GI50 (M19-MEL): > 100 µM (inactive) | GI50 (DMS-273): > 100 µM (inactive) | GI50 (DLD-1): > 100 µM (inactive)

NC1CC(=O)c2c(Br)csc21 (configuration not stated)
GI50 (T47D): > 100 µM (inactive)

O=P1(N(CCCl)CCCl)Oc2c(Cl)cc(Cl)c(Cl)c2Cc2c(Cl)c(Cl)cc(Cl)c2O1
GI50 (T47D): > 100 µM (inactive)

CC(=O)OCC1OC(n2c3c(cc(C#N)c2=S)CCCCC3)C(OC(C)=O)C(OC(C)=O)C1OC(C)=O (configuration not stated)
GI50 (T47D): 29.4 µM (inactive)

C[C@H]1CC[C@@H]2[C@@H](C)[C@H]3[C@H](C[C@H]4[C@@H]5CC=C6C[C@@H](O)CC[C@]6(C)[C@H]5CC[C@]34C)N2C1
GI50 (T47D): 86.9 µM (inactive)

C[N+]1([O-])[C@H]2CC(OC(=O)[C@H](CO)c3ccccc3)C[C@H]1[C@H]1O[C@H]12 (some centres not stated)
GI50 (T47D): > 100 µM (inactive)

COc1cc(Oc2nc3ccc(C(F)(F)F)cc3nc2-c2ccccc2)cc(OC)c1OC
GI50 (T47D): 54.7 µM (inactive)

O=C1OC2C(O)COC2(O)C1(O)Cc1c[nH]c2ccccc12 (configuration not stated)
GI50 (HOP-18): > 100 µM (inactive) | GI50 (XF498): > 100 µM (inactive) | GI50 (KM-20L2): > 100 µM (inactive) | GI50 (LXFL 529): > 100 µM (inactive) | GI50 (M19-MEL): > 100 µM (inactive) | GI50 (DMS-273): > 100 µM (inactive) | GI50 (DLD-1): > 100 µM (inactive)

CS(=O)(=O)OCC1CCCCCCCCCCC12SCCCS2 (configuration not stated)
GI50 (T47D): > 100 µM (inactive)
